Experimental data taken from BigSolDB 2.1.

Brc1sc(Br)c(Br)c1Br
solubility (mole fraction)
Settings	in THF	in ethanol
278.15 K	0.0397	0.00126
282.15 K	0.043	0.00134
286.15 K	0.0463	0.00151
290.15 K	0.05	0.00181
294.15 K	0.0539	0.00206
298.15 K	0.0581	0.00241
302.15 K	0.0627	0.00268
306.15 K	0.0671	0.00305
310.15 K	0.0719	0.00353
314.15 K	0.0766	0.00389
318.15 K	0.082	0.00442
322.15 K	0.0869	0.00501
